Measurements reported in ChEMBL document CHEMBL3727348, “3-(aryl or heteroaryl) methyleneindolin-2-one derivatives as inhibitors of cancer stem cell pathway kinases for the treatment of cancer” (2014).
pIC50: −log10 of the molar value.

What was measured:
Type in all cases: functional, cell-based
A549 [1] = test: Cytotoxic activity against human A549 bulk cells incubated for 72 hrs by Cell-titer-Glo luminescence assay; settings: A549, 72 h
FaDu [2] = test: Cytotoxic activity against human FADU cancer stem cells incubated for 72 hrs by Cell-titer-Glo luminescence assay
A549 [3] = test: Cytotoxic activity against human A549 cancer stem cells incubated for 72 hrs by Cell-titer-Glo luminescence assay; settings: A549, 72 h
FaDu [4] = test: Cytotoxic activity against human FADU bulk cells incubated for 72 hrs by Cell-titer-Glo luminescence assay
ACHN [5] = test: Cytotoxic activity against human ACHN cancer stem cells incubated for 72 hrs by Cell-titer-Glo luminescence assay
ACHN [6] = test: Cytotoxic activity against human ACHN bulk cells incubated for 72 hrs by Cell-titer-Glo luminescence assay

Row | SMILES | pIC50 (A549 [1]) | pIC50 (FaDu [2]) | pIC50 (A549 [3]) | pIC50 (FaDu [4]) | pIC50 (ACHN [5]) | pIC50 (ACHN [6])
1 | CCN(CC)CCNC(=O)CCc1c(C)[nH]c(/C=C2\C(=O)Nc3ccc(-c4csc(-c5ccncc5)n4)cc32)c1C | 5.00 | 5.34 | 4.45 | 4.55 | 5.91 | 5.13
2 | CCN(CC)CCNC(=O)c1c(C)[nH]c(/C=C2\C(=O)Nc3ccc(-c4cnc5ccccc5n4)cc32)c1C | 5.09 | 7.40 | 4.37 | 5.58 | 5.25 | 5.24
3 | CCN(CC)CCNC(=O)c1c(C)[nH]c(/C=C2\C(=O)Nc3ccc(-c4ccc(C(=O)O)s4)cc32)c1C | 5.66 | 5.37 | 5.05 | 5.92 | 5.64 | 5.69
4 | CCN(CC)CCNC(=O)c1c(C)[nH]c(/C=C2\C(=O)Nc3ccc(-c4ccc(C)cn4)cc32)c1C | 5.19 | 6.66 | 5.47 | 5.52 | 5.94 | 5.53
5 | CCN(CC)CCNC(=O)c1c(C)[nH]c(/C=C2\C(=O)Nc3ccc(-c4ccc5c(c4)CC(=O)N5)cc32)c1C | 4.71 | 4.81 | 4.53 | 4.60 | 4.68 | 4.72
6 | CCN(CC)CCNC(=O)c1c(C)[nH]c(/C=C2\C(=O)Nc3ccc(-c4ccc(C=O)cc4)cc32)c1C | 4.97 | 5.12 | 5.23 | 4.92 | 5.36 | 5.55
7 | CCN(CC)CCNC(=O)c1c(C)[nH]c(/C=C2\C(=O)Nc3ccc(-c4cnccn4)cc32)c1C | 4.98 | 6.64 | 4.88 | 5.18 | 5.58 | 5.00
8 | CCN(CC)CCNC(=O)c1c(C)[nH]c(/C=C2\C(=O)Nc3ccc(-c4ccc(OC)cn4)cc32)c1C | 4.97 | 6.80 | 5.05 | 5.15 | 5.97 | 5.19
9 | CCN(CC)CCNC(=O)c1c(C)[nH]c(/C=C2\C(=O)Nc3cc(-c4csc(-n5cccn5)n4)ccc32)c1C | 5.24 | 6.11 | 5.53 | 5.28 | 6.77 | 5.59
10 | CCN(CC)CCNC(=O)c1c(C)[nH]c(/C=C2\C(=O)Nc3ccc(-c4ccc(OC)cc4C)cc32)c1C | 5.76 | 5.85 | 5.34 | 5.64 | 5.85 | 5.65
11 | CCN(CC)CCNC(=O)c1c(C)[nH]c(/C=C2\C(=O)Nc3ccc(-c4ncccc4OC)cc32)c1C | 5.13 | 7.15 | 5.16 | 5.58 | 5.85 | 5.15
12 | O=C1Nc2ccc(-c3csc(C4CCNCC4)n3)cc2/C1=C/c1cc2c([nH]1)CCCC2 | 5.03 | 4.92 | 4.66 | 4.68 | 5.57 | 4.73
13 | CCN(CC)CCNC(=O)c1c(C)[nH]c(/C=C2\C(=O)Nc3ccc(-c4ccc(C#N)c(F)c4)cc32)c1C | 4.84 | 5.46 | 4.92 | 4.85 | 5.77 | 4.88
14 | CCN(CC)CCNC(=O)c1c(C)[nH]c(/C=C2\C(=O)Nc3ccc(-c4cnsc4)cc32)c1C | 5.42 | 5.47 | 5.18 | 5.50 | 6.19 | 5.34
15 | CCN(CC)CCNC(=O)c1c(C)[nH]c(/C=C2\C(=O)Nc3cc(-c4cccc5ncccc45)ccc32)c1C | 5.54 | 5.58 | 5.06 | 5.32 | 6.38 | 5.58
16 | Cc1[nH]c(/C=C2\C(=O)Nc3ccc(-c4ccc(-c5ccccc5)s4)cc32)c(C)c1C(=O)N1CCOCC1 | 4.99 | 5.61 | 4.96 | 4.68 | 6.64 | 4.89
17 | CCN(CC)CCNC(=O)c1c(C)[nH]c(/C=C2\C(=O)Nc3ccc(-c4ncccc4C)cc32)c1C | 5.38 | 4.70 | 4.88 | 5.12 | 5.73 | 5.38
18 | CCN(CC)CCNC(=O)c1c(C)[nH]c(/C=C2\C(=O)Nc3ccc(-c4nc5ccccc5s4)cc32)c1C | 5.43 | 5.22 | 5.38 | 5.31 | 6.01 | 5.02
19 | CCN(CC)CCNC(=O)c1c(C)[nH]c(/C=C2\C(=O)Nc3ccc(-c4cc(-c5ccccc5)ccn4)cc32)c1C | 5.82 | 5.01 | 5.70 | 5.59 | 6.05 | 5.62
20 | CCN(CC)CCNC(=O)c1c(C)[nH]c(/C=C2\C(=O)Nc3ccc(-c4cccc(C#N)c4C)cc32)c1C | 5.55 | 5.33 | 5.35 | 5.37 | 6.24 | 5.28
21 | Cc1cc(C)c(/C=C2\C(=O)Nc3ccc(-c4ccc(O)cc4C)cc32)[nH]1 | 4.90 | 4.84 | 4.43 | 4.83 | 4.68 | 4.83
22 | CCN(CC)CCNC(=O)c1c(C)[nH]c(/C=C2\C(=O)Nc3ccc(-c4ccccn4)cc32)c1C | 5.14 | 6.74 | 5.26 | 5.59 | 5.97 | 5.65
23 | CCN(CC)CCNC(=O)c1c(C)[nH]c(/C=C2\C(=O)Nc3ccc(-c4cccc(OC)n4)cc32)c1C | 5.55 | 6.72 | 5.65 | 5.75 | 6.62 | 5.71
24 | CCN(CC)CCNC(=O)c1c(C)[nH]c(/C=C2\C(=O)Nc3ccc(-c4cnc5cccnn45)cc32)c1C | 5.44 | 7.22 | 5.18 | 5.76 | 5.56 | 5.44
25 | Cc1cc(C)c(/C=C2\C(=O)Nc3ccc(-c4csc(-n5ccnc5)n4)cc32)[nH]1 | 5.03 | 4.43 | 4.46 | 4.84 | 5.57 | 5.05
26 | CCN(CC)CCNC(=O)c1c(C)[nH]c(/C=C2\C(=O)Nc3ccc(-c4cnc5ccccc5c4)cc32)c1C | 5.41 | 5.26 | 5.17 | 5.34 | 6.21 | 5.19
27 | CCN(CC)CCNC(=O)CCc1c(C)[nH]c(/C=C2\C(=O)Nc3ccc(-c4csc(-c5ccccc5)n4)cc32)c1C | 5.95 | 5.45 | 5.06 | 5.41 | 5.37 | 5.61
28 | CCN(CC)CCNC(=O)c1c(C)[nH]c(/C=C2\C(=O)Nc3ccc(-c4csc(-n5cccn5)n4)cc32)c1C | 5.43 | 5.29 | 5.18 | 5.33 | 6.21 | 5.10
29 | O=C1Nc2ccc(-c3csc(-c4ccncc4)n3)cc2/C1=C/c1cnc[nH]1 | 5.04 | 4.66 | 5.14 | 5.78 | 4.54 | 5.44
30 | CCN(CC)CCNC(=O)c1c(C)[nH]c(/C=C2\C(=O)Nc3ccc(-c4ncccn4)cc32)c1C | 4.81 | 7.05 | 4.74 | 5.22 | 5.94 | 5.46
